The series deals with Vibrio fischeri NRRL-B-11177. Description: Microtox™ toxicity test (light emission of bioluminescent bacterium). The following applies: constituent at the loading given; for EC50 Result (%): normally 50% light reduction over 15 minute at 15°C. It is filed as cell-based. On the procedure: Under the Microtox™ protocols, the viability of known bacterial cultures is measured within a sample to produce a numeric result as well as a “pass/fail” indication.
The test is performed by rehydrating freeze dried cultures of the organism, supplied as the Microtox™ reagent and determining the initial light output of homogenized bacterial suspensions. Aliquots of osmotically adjusted sample and sample dilutions are added to the bacterial suspension, and light measurements are made at specific intervals (generally at 5 or 15 minutes) after exposure to test samples. The diluent control (blank) is used to correct time-dependant change in light output.
The Microtox™ test endpoint is measured as the effective or inhibitory concentration of a test sample that reduces light emission by a specific amount under defined conditions of time and temperature. Normally, this is expressed as an ECSO(15) or ICSO(15) which is the effective concentration or inhibitory concentration of a sample that reduces light emission of the test organism by 50% over a 15 minute test period at 15°C.
The EC50 or IC50 is calculated by log linear plotting of Concentration (C) vs percent Light Decrease (percent A), or more precisely by plotting Gamma Q (which is the corrected ratio of the amount of light lost to the amount of light remaining) versus Concentration on a log-log graph. Either a hand calculator or computer program data reduction systems may be used to calculate Gamma and the corresponding EC50 or ICSO values.
Thus, the desired loading for a fracturing fluid is determined and the viscosifier diluted to that loading in water and subjected to standardized Microtox™ testing.

A value given as a limit tells only on which side of the number the result lay.

In the case of “hemicellulase enzyme [hemicellulase enzyme (0.02 wt %)]”, the “EC50 Result (%)” value is listed as greater than 91%.

For `O=CO` [0.002 wt % formic acid, formic acid], the Pass/Fail entry was “Pass (>75% EC50 result is required for pass)” and the “EC50 Result (%)” value is on record as greater than 91%. With `C[Si]1(C)O[Si](C)(C)O[Si](C)(C)O[Si](C)(C)O1` [octamethylcyclotetrasiloxane], the Pass/Fail entry was “Pass (>75% EC50 result is required for pass)” and the “EC50 Result (%)” value was found to be 82%. Consider `[Cl-].[K+]` [4 wt % KCl water, KCl], for which the “EC50 Result (%)” value is listed as greater than 91%.

The record behind these values is US8387699B2, “Green coal bed methane fracturing fluid compositions, methods of preparation and methods of use” (Calfrac Well Services Ltd., priority 2008, dated 2013).
